# In US20230348358A1, “Serotonin Receptor Modulators” (Northeastern University, priority 2020, published 2023):
# “Also recorded” adds a separate entry of the source. Read-outs that look alike come from different tables or passages of the source.
# What was measured:
# C58/J mice = experiment: Idiopathic stereotypic jumping; format: in vivo, mouse; details: dose-dependent; listed as (2S)-5-FPT, HCl
# 5HT7 [1] = molecular target: T1, 5HT7 (Homo sapiens, UniProt P34969); experiment: 5HT7 function, Gs-cAMP signaling (HEK293 cells); format: cell-based; set-up: ATCC CRL-1573 (cells); details: for Function at 5HT7: cAMP signaling, HCl
# Description: It is certain that the C(5) substituent impacts function. […] In FIG. 3, results of measured (S)-5-PAT scaffold yields with various function as 5HT7 ligands are compared with AS-19 and clozapine.
# [2] = tested on: Fmr1 knockout and wild-type mice; experiment: c-Fos immunohistochemistry in brain of wild-type and Fmr1 knockout mice; format: in vivo, mouse; details: for c-Fos expression in the inferior colliculus: juvenile Fmr1 knockout mice, 30 seconds 120 dB alarm
# Experimental: Brains are excised and post-fixed overnight in 4% paraformaldehyde, followed by 20% glycerol in TBS for at least 24 hrs. Coronal sections (40 μm) traversing regions of interest then be collected using a Leica CM1950 cryostat, and placed in cold TBS. c-Fos IHC is performed using free-floating IHC methods as have been previously described, but with a new primary antibody. A protocol with the Abcam [2H2] (ab208942) mouse monoclonal antibody has been recently optimized, which has essentially no cross-reactivity. An HRP-conjugated secondary antibody is used for visualization by the biotin-streptavidin technique using 3,3′-diaminobenzidine as the chromagen (Vectastain Elite, Vector Laboratories). Examination of c-Fos expression in frontal cortex, hypothalamus, nucleus accumbens, ventral tegmental area, amygdala, BNST, and hippocampus are conducted.
# On the basis of the distribution of FMRP (Fragile X mental retardation protein) in the adult mouse brain and considering neural systems implicated in cognitive and neuropsychiatric symptoms (e.g., anxiety, sensory hypersensitivity, and social deficits) present in FXS and ASD, the effects of FPT were evaluated on c-Fos expression in the hippocampus (CA1, CA3, and dentate gyrus (DG)), the basolateral amygdala (ventral (BLAv), posterior (BLAp), and anterior (BLAa)), the somatosensory (SS) cortex, the hypothalamus (periventricular hypothalamic nucleus, intermediate (PVi), posterior hypothalamic nucleus (PH), and dorsomedial nucleus of the hypothalamus (DMH)), the paraventricular nucleus of the thalamus (PVT), and the ventral retrosplenial area (RSPv). Shown in FIG. 15A and FIG. 15B are results from analyses of c-Fos expression in CA3 and the BLAa, respectively. There were no main effects of the independent variables on c-Fos in CA3; however, there was a significant treatment effect in BLAa (F(1, 12)=14.22, P=0.0027). […] The effect was large, but the difference was not statistically significant (P=0.0871, d=1.54).
# 5HT2B receptors [3] = molecular target: T2, 5HT2B receptors (Homo sapiens, UniProt P41595); experiment: Affinity at 5HT2B receptors; format: binding
# T2 construct: host or cells: HEK293, transient
# C57BI/6J mice [4] = experiment: MK-801 elicited stereotypic rotations and hyperlocomotion; format: in vivo, mouse
# Description: Regarding glutamate neurotransmission in stereotypy, the NMDA receptor antagonist, MK-801, characteristically elicits stereotypic rotations that appear to mimic monogenetic stereotypy observed in Fmr1 KO mice. Furthermore, mutations and autoantibodies of the NMDA glutamate receptor that decrease its function are causally linked to ASD, intellectual disabilities, and psychiatric symptoms in humans.
# 5HT2A receptors = molecular target: T3, 5HT2A receptors (Homo sapiens, UniProt P28223); experiment: biochemical; format: binding
# T3 construct: host or cells: HEK293, transient
# D2 receptors = molecular target: T4, D2 receptors (Homo sapiens, UniProt P14416); experiment: Affinity at dopamine D2 receptors; format: binding
# T4 construct: host or cells: HEK293, transient
# 5HT1A = molecular target: T5, 5HT1A (Homo sapiens, UniProt P08908); experiment: 5HT1A function, Gαi cAMP signaling (CHO cells); format: cell-based
# T5 sequence (P08908 1-422): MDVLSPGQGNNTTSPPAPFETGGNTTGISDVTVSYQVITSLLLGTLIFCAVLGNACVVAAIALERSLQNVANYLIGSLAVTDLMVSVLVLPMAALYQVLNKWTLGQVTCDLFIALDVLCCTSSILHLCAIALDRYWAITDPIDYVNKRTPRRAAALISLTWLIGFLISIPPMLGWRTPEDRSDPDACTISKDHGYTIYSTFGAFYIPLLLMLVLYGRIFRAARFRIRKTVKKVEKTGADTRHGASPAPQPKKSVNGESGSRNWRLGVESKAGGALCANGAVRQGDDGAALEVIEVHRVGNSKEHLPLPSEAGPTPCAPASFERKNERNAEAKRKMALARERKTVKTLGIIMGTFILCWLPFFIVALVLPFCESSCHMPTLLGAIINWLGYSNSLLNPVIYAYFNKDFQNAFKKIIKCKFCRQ
# [5] = tested on: mice (C57BL/6J, FVB, C58/J); experiment: Locomotor behavior, compound on its own; format: in vivo, mouse; details: compound on its own or in the DOI assay; listed as (2S)-5-FPT, HCl
# C57BI/6J mice [6] = experiment: d-Amphetamine (AMP)-elicited hyperlocomotion; format: in vivo, mouse; details: 5.6 mg/kg; listed as (2S)-5-FPT, HCl
# FVB mice = experiment: Marble burying; details: mouse, in vivo
# Experimental: For measurement of marble burying (FIG. 7), FVB mice were placed individually, for 10 min, in clean boxes (6 in. ×10 in. ×5 in.) containing 18 clear marbles atop fresh home-bedding. Marbles buried (i.e., marbles 50% covered with bedding) were calculated after the test session.
# 5HT7 [7] = molecular target: T1, 5HT7; experiment: Affinity (Ki) at 5HT7, HEK293 cells stably expressing 5HT7
# C57BI/6J mice [8] = experiment: Social interactions between littermates; format: in vivo, mouse; details: 5.6 mg/kg
# Description: After behavioral testing was complete, blind scorers categorized mice into two groups based on number of rears and initiated social interactions, and the two groups differentiated vehicle from (2S)-5-FPT-treated mice with 100% accuracy.
# 50 CNS/peripheral sites = experiment: NIMH PDSP / NIDA evaluation at 50 CNS/peripheral sites; format: binding
# 5HT2B receptors [9] = molecular target: T2, 5HT2B receptors; experiment: 5HT2B functional assays; format: cell-based
# T1 sequence (P34969 whole entry): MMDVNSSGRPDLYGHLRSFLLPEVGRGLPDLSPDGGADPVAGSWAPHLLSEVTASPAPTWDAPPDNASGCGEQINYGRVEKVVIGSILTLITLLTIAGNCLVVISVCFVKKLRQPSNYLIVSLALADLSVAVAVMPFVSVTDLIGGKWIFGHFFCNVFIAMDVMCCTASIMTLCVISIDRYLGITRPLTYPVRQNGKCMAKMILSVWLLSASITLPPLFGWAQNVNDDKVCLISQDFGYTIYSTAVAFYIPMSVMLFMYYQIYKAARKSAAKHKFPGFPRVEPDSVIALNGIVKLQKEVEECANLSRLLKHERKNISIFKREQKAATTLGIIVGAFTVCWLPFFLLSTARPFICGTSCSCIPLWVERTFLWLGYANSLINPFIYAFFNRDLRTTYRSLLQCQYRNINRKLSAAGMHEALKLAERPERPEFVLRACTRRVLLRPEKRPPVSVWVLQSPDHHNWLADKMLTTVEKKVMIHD
# T2 sequence (P41595 whole entry): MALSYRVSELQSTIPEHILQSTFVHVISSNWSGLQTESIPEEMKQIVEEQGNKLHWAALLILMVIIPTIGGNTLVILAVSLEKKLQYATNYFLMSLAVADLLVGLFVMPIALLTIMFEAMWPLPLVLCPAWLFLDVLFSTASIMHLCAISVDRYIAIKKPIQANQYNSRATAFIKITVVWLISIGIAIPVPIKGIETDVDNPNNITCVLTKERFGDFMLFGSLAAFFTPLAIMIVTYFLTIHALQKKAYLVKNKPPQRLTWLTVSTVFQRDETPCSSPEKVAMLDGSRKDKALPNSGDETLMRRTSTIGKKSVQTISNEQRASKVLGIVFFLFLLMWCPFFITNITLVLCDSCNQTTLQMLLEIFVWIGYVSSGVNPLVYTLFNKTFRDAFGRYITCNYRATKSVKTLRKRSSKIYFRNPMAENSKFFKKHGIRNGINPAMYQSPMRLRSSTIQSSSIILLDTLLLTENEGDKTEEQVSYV
# T4 sequence (P14416 whole entry): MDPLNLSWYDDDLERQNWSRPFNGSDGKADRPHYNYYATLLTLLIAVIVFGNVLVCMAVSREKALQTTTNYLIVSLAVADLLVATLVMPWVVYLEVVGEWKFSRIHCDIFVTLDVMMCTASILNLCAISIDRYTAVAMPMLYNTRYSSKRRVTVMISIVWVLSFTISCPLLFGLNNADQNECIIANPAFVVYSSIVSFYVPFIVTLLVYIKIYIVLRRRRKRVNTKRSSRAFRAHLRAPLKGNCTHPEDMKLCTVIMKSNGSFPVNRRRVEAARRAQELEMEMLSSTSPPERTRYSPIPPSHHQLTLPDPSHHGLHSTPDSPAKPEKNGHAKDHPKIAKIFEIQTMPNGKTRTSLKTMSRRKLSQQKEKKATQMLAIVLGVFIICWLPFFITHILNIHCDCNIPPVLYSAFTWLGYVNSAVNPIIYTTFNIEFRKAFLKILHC
# T3 sequence (P28223 whole entry): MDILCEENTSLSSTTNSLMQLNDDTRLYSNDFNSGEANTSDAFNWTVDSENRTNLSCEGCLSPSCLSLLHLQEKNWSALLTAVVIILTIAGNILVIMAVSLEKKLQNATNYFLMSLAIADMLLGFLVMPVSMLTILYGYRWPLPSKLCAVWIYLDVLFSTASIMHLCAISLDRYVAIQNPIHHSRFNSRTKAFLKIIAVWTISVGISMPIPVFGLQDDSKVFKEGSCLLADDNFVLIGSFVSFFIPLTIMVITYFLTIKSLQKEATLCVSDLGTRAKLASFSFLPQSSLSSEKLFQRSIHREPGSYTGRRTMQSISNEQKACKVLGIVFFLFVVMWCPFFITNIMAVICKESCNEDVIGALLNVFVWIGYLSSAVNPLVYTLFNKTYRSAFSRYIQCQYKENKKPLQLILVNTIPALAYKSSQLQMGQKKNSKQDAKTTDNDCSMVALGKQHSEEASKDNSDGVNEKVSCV
compound,measurement,setting,value
"CN(C)[C@H]1CCc2c(cccc2-c2ccccc2F)C1.Cl [(S)-5-FPT, (2S)-5-(2-fluorophenyl)-N,N-dimethyl-1,2,3,4-tetrahydronaphthalen-2-amine HCl]",Stereotypic jumping,C58/J mice,"potently eliminated stereotypic jumping; also recorded: greater efficacy in this model than the recently reported mGluR5 negative allosteric modulator, GRN-529"
same,EC50,5HT7 [1],34 nM
same,"EMAX vs AS-19, 5-HT7 Gs-cAMP signaling",5HT7 [1],33%
same,Function at 5HT7,5HT7 [1],Partial agonist
same,Function at 5HT7,5HT7 [1]; listed as (2S)—S-FPT,partial agonist
same,c-Fos expression in CA3 region of the hippocampus,[2]; WT and KO mice,did not significantly increase c-Fos expression
same,c-Fos expression in the inferior colliculus,[2],did not affect the number of c-Fos positive cells
same,c-Fos expression in the inferior colliculus,"[2]; listed as FPT, HCl",no effect
same,c-Fos expression in other brain regions,"[2]; mouse, in vivo",did not significantly alter c-Fos expression in any other brain region examined
same,Ki,5HT2B receptors [3],60 nM
same,Hyperlocomotion caused by MK-801,C57BI/6J mice [4]; 5.6 mg/kg,significantly decreased hyperlocomotion
same,MK-801 elicited stereotypical rotations,C57BI/6J mice [4]; 5.6 mg/kg,significantly reduced stereotypical rotations
same,"Stereotypic rotational behavior, compound alone",C57BI/6J mice [4]; without MK-801,neither (2S)-5-FPT nor AMP caused stereotypic rotational behavior
same,Ki,5HT2A receptors,~900 nM
same,Affinity at D2 receptors,D2 receptors,poor affinity
same,Function at 5HT1A,5HT1A,Partial agonist
same,Locomotor behavior,[5],did not alter locomotion; also recorded: without altering locomotor behavior on its own
same,Hyperlocomotion caused by AMP,C57BI/6J mice [6],did not reduce hyperlocomotion caused by AMP; also recorded: did not significantly decrease hyperlocomotion elicited by amphetamine
same,Marble burying (repetitive behavior),FVB mice,reduces or eliminates repetitive behavior in all models
same,5-HT7 affinity of (S)-enantiomer over (R)-enantiomer,5HT7 [7],about 80 times
same,Ki,5HT7 [7]; Affinity Ki ± SEM at 5HT7,5 nM
same,Ki,"5HT7 [7]; read-out: Affinity Ki ± SEM at 5HT7, HCl",5.3 ± 2 nM
same,Grooming,C57BI/6J mice [8],decreasing grooming
same,Number of initiated social interactions,"C57BI/6J mice [8]; listed as (2S)-5-FPT, HCl",significantly increases the number of initiated social interactions
same,Activity at 50 CNS/peripheral sites,50 CNS/peripheral sites,without activity at 50 CNS/peripheral sites
same,5HT2B functional activity,5HT2B receptors [9],devoid of 5HT2B activity up to 100 μM
